Assay results published in US10155728B2, “Compounds for treatment of cancer” (GTX INC., priority 2014, dated 2018).
Several values for one entry are separate records, joined by “and”; a condition that tells them apart may be missing. Identical values can stand only once. Like-named read-outs stand apart in the source and are kept apart here.

Experiments:
[1] = tested on: melanoma and prostate cancer cell lines; test: SRB cytotoxicity assay, melanoma and prostate cancer cell lines; format: cell-based; details: SRB 96 h
Method: (§2) Cell Culture and Cytotoxicity Assay of Prostate Cancer and Melanoma. […] Melanoma cells were cultured in DMEM, supplemented with 5% FBS, 1% antibiotic/antimycotic mixture (Sigma-Aldrich, Inc., St. Louis, Mo., USA) and bovine insulin (5 μg/ml; Sigma-Aldrich).

[2] = Microsomal stability assay, rat; format: in vitro ADME; details: for T1/2: rat liver microsomes, 0.5 μM
Method: (§1) Microsomal Stability Assay. […] For metabolite identification, the reaction mixture was incubated for 2 h with 50 μM test compound concentration under the previously described conditions. The supernatants were analyzed using a Water Xevo G2-S high resolution mass spectrometer.

Bovine brain tubulin = target: T1, Bovine brain tubulin (Bos taurus, UniProt P81947+Q6B856); test: In vitro tubulin polymerization assay; format: biochemical; details: for inhibition at 5 µM / inhibition at 10 µM: after 20 min incubation, compared to vehicle; for Inhibition of tubulin polymerization relative to colchicine (in words): 5 and 10 μM
T1 construct: Bovine brain tubulin (0.4 mg, >97% pure) (Cytoskeleton, Denver, Colo.); purchased Cytoskeleton, Denver, Colo; host or cells: bovine brain tissue
T1 sequence (Q6B856 whole entry): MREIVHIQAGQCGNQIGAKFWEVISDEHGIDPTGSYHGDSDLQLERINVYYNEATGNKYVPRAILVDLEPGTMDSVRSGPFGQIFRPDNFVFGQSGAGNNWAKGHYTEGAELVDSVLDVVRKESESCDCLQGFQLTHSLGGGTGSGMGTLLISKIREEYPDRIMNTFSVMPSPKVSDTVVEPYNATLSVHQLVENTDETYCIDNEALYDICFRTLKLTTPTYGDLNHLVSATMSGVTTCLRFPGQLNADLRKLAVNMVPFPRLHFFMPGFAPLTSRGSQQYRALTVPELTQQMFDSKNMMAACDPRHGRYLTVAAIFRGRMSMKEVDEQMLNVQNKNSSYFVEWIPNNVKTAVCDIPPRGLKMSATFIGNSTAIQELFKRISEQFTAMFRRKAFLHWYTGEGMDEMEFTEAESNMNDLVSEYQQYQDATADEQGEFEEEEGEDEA
T1 sequence (P81947 whole entry): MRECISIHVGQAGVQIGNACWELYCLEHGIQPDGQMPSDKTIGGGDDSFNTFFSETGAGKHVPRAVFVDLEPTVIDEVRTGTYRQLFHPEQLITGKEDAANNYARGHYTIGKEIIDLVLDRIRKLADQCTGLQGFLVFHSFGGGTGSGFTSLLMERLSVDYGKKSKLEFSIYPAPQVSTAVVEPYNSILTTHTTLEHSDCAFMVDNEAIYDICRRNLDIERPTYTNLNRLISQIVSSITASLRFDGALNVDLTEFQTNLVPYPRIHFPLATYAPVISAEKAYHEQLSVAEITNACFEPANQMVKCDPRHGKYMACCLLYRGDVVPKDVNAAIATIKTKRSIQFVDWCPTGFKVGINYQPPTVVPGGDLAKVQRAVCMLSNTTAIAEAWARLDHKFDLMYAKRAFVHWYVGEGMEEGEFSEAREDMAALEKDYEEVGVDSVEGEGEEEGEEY
Method: In Vitro Tubulin Polymerization Assay. […] […] The spectrophotometer was set at 37° C. for tubulin polymerization. […] DMSO was used as a blank control.

[3] = Metabolite identification in liver microsomes; format: in vitro ADME; details: 50 μM, 2 h incubation, high resolution MS
Method: as §1
We utilized a high resolution mass spectrometer for the identification of the metabolites with a mass error of less than 2 ppm generally. The detailed information regarding the mass spectrum and the chromatogram of each of the metabolites are presented in the supplementary materials. […] M4 (identified by mass spectrum 388.12 [M+1]) was the product that resulted from ketone reduction and it was further hydroxylated to M5 (identified by mass spectrum 404.12 [M+1]) at a position that was unidentifiable due to limited information. […] M7 (deamination) (identified by mass spectrum 370.11 [M+1]) was a minor product. […] M9 (identified by mass spectrum 386.15 [M+1]) and M10 (identified by mass spectrum 416.16 [M+1]) had more than one possible structure as indicated in the chromatograms. For 7 (FIG. 11), various metabolites including 0-demethylation (M12) (identified by mass spectrum 387.15 [M+1]), mono-hydroxylation (M14) (identified by mass spectrum 417.16 [M+1]), O-demethylation followed by mono-hydroxylation (M11) (identified by mass spectrum 403.14 [M+1]), and dihydroxylation (M13) (identified by mass spectrum 433.15 [M+1]) were detected.

[4] = Microsomal stability assay, mouse; format: in vitro ADME; details: for T1/2: mouse liver microsomes, 0.5 μM
Method: as §1

[5] = Microsomal stability assay, human; format: in vitro ADME; details: for T1/2: human liver microsomes, 0.5 μM
Method: as §1

[6] = tested on: K562 human leukemia cells; details: read-out: IC50 against K562 human leukemia cells; cited from earlier work
A375 cells = test: SRB cytotoxicity assay, A375 melanoma cells; format: cell-based; details: for IC50: SRB assay after 96 h of treatment, read-out: IC50 against A375 cells
Method: as §2

[7] = Microsomal stability, liver microsomes over tested species; format: in vitro ADME
Method: as §1

LNCaP cells = test: SRB cytotoxicity assay, LNCaP prostate cancer cells; format: cell-based, human; details: androgen sensitive prostate cancer LNCaP cells
Method: as §2

Row | Compound | Antiproliferative activity (in words) [1] | Major metabolites / metabolic pathway [3] | T1/2 [5] | T1/2 [2] | T1/2 [4] | further results
1 | COc1cc(C(=O)c2c[nH]c(Nc3ccccc3)n2)cc(OC)c1OC [Compound 27, (2-(Phenylamino)-1H-imidazol-4-yl)(3,4,5-trimethoxyphenyl)methanone] | did not demonstrate any activity |  |  |  |  | 
2 | COc1cc(-c2cccc3[nH]c(-c4c[nH]c5ccccc45)nc23)cc(OC)c1OC [Compound 4, 2-(1H-Indol-3-yl)-4-(3,4,5-trimethoxyphenyl)-1H-benzo[d]imidazole] | comparable potency | O-demethylation (M9) and mono-hydroxylation (M10) | 50.7 ± 1.2 min |  |  | half-life at 0.5 μM ([2]; pH 7.4, rat liver microsomes): 72.3 ± 4.6 min; inhibition at 5 µM (Bovine brain tubulin): 30%; inhibition at 10 µM (Bovine brain tubulin): 60%; Inhibition of tubulin polymerization relative to colchicine (in words) (Bovine brain tubulin): stronger inhibition than colchicine; half-life at 0.5 μM ([4]; pH 7.4, mouse liver microsomes): 53.5 ± 2.4 min; half-life at 0.5 μM ([5]; human, pooled liver microsomes, pH 7.4, human liver microsomes): 51 min
3 | COc1ccc(/C=C(\C)C(=O)c2cc(OC)c(OC)c(OC)c2)cc1O [SD400] |  |  |  |  |  | IC50 [6]: 0.21 nM
4 | COCOc1c(OC)cc(C(=O)c2csc(-c3ccccc3)n2)cc1OC [Compound 15, (3,5-Dimethoxy-4-(methoxymethoxy)phenyl)(2-phenylthiazol-4-yl)methanone] | improved activity | removal of the MOM group to form M1 | 7.8 ± 0.3 min | 9.7 ± 0.4 min | 4.0 ± 0.3 min | IC50 (A375 cells; Homo sapiens, A-375): 20 nM; Metabolic stability (in words) ([7]; any of the tested liver microsomes): did not improve its metabolic stability; half-life at 0.5 μM ([7]; pH 7.4, human, mouse, rat liver microsomes, read-out: T1/2 over tested species liver microsomes): < 10 min
5 | COc1cc(C(=O)c2csc(-c3ccccc3)n2)cc(OC)c1OC [Compound 10, reference compound] |  |  | 17 min | 31 min | <<5 min | IC50 (A375 cells): 28 nM
6 | COc1cc(C(=O)c2csc(Nc3ccc4[nH]ccc4c3)n2)cc(OC)c1OC [Compound 33, (2-((1H-Indol-5-yl)amino)thiazol-4-yl)(3,4,5-trimethoxyphenyl)methanone] | excellent growth inhibition |  |  |  |  | IC50 change compared to PAT (prostate cancer cells): 2-3 fold
7 | COc1cc(-c2nccc3[nH]c(-c4ccc5[nH]ccc5c4)nc23)cc(OC)c1OC [Compound 7, 2-(1H-Indol-5-yl)-4-(3,4,5-trimethoxyphenyl)-1H-imidazo[4,5-c]pyridine] | increased potency | formed very evenly with similar relative amount | 45 min and 45.3 ± 2.0 min | 30.4 ± 1.9 min | 19.7 ± 0.7 min | IC50 improvement compared to 10 and 4 (A375 cells; melanoma A375 cells): at least 5 fold; inhibition at 5 µM (Bovine brain tubulin): ~33%; inhibition at 10 µM (Bovine brain tubulin): ~81%; Inhibition of tubulin polymerization relative to colchicine (in words) (Bovine brain tubulin): stronger inhibition than colchicine; IC50 improvement compared to 10 and 4 (LNCaP cells): at least 5 fold
8 | COc1cc(C(=O)c2csc(-c3ccccc3)n2)cc(OC)c1OCCN1C(=O)c2ccccc2C1=O [Compound 17, 2-(2-(2,6-Dimethoxy-4-(2-phenylthiazole-4-carbonyl)phenoxy)ethyl)isoindoline-1,3-dione] | micromolar range potency |  |  |  |  | 
9 | COc1cc(C(=O)c2csc(-c3ccccc3)n2)cc(OC)c1OC(=O)CCl [Compound 12, 2,6-Dimethoxy-4-(2-phenylthiazole-4-carbonyl)phenyl 2-chloroacetate] | dropped significantly |  |  |  |  | 
